According to publication PMC9030166, “Natural Phaeosphaeride A Derivatives Overcome Drug Resistance of Tumor Cells and Modulate Signaling Pathways” (Pharmaceuticals, 2022):
Several values for one entry are separate records, joined by “and”; a condition that tells them apart may be missing. Equal entries are not always repeated.

Experiments:
PC3 = assay: MTT cytotoxicity, PC-3 prostate adenocarcinoma cells; format: cell-based, human; details: 48 h; for IC50: Homo sapiens, PC-3, adhesive tumor culture
Text: (§1) Cell cultures used in the work: adhesive cultures HBL-100 cells (cells of a normal mammary gland epithelium, immortalized by the SV40 virus and acquired tumorigenicity); MCF-7 breast cancer cells; PC-3 prostate adenocarcinoma cells; HCT-116 colorectal cancer cells; non-small cell lung cancer cells A549; human embryonic kidney cells HEK293; suspension cultures (NCI-H929 and RPMI8226 multiple myeloma cells), K562 chronic myeloid leukemia cells; THP-1 acute monocytic leukemia cells; and Jurkat acute T-cell leukemia cells. We also used several primary cultures of soft tissue sarcomas at 3–4passeges, kindly provided by T.I. Fetisov (The Ethics Committee of N.N. Blokhin NMRCO, protocol code 18-28-09095 and date of approval 28 September 2018).
(§2) Modifications of cell lines: K562/i-S9 is a clone obtained after transfection of K562 cells with the ABCB1 (MDR1) gene-encoding P-glycoprotein [36]. Cells HBL-100/Dox and K562/i-S9_Dox are cells obtained by long-term selection with increasing concentrations of doxorubicin (Sigma-Aldrich, St. Louis, MO, USA) from HBL-100 and K562/i-S9 cells, respectively. MCF-7, A594 cells, and primary cultures of soft tissue sarcomas were cultured in DMEM medium (PanEko, Russia), PC-3 and HCT-116 cells and all suspension cultures in RPMI1640 medium (PanEko, Russia) supplemented with 10% fetal bovine serum (GE Healthcare LifeSciences, USA), and gentamicin at a concentration of 40 μg/mL at 37 °C and 5% CO2.
(§3) Cells MCF-7, PC-3, A549, and HCT-116, and primary cultures of STSwere seeded in 96-well plates, 6 × 10^3 cells per well in 90 μL of culture medium. Suspension cultures were seeded at a concentration of 25 × 10^3 cells per well in 135 μL of medium. The test substances were dissolved in DMSO (Applichem, Council Bluffs, IA, USA) until a concentration of 1 × 10^−^2 M was obtained; for the subsequent dilution of the substances, a serum-free culture medium was used. The next day, for adhesive cultures, and on the same day, for suspension cultures, substances were added to the plates in a volume of 10 μL (adhesive cultures) and 15 μL (suspension cultures) per well at various concentrations; each concentration was added in 3–4 repetitions. The cells were cultured in the presence of substances for 48 h. Then, MTT reagent (PanEko, Moscow, Russia) was added to the wells at a concentration of 5 mg/mL in a volume of 20 μL per well. After 1.5–2 h, the medium with the reagent was removed, and the precipitate of the crystals of formazan was dissolved in 60 μL of DMSO. The optical density was determined using a Multiskan FC spectrophotometer (Thermo Scientific, Waltham, MA, USA) at a wavelength of 540 nm.
(§4) Based on the results of the experiments, a schedule was plotted of the dependence of the percentage of surviving cells (from control) on the concentration of the compound, and the sought concentration IC50 was calculated. The experiments were carried out in 3–4 times.

A549 = assay: MTT cytotoxicity, A549 non-small cell lung cancer cells; format: cell-based, human; details: 48 h; for IC50: Homo sapiens, A549, adhesive tumor culture
Text: as §1, §2, §3, §4

HEK293 = assay: MTT cytotoxicity, human embryonic kidney cells HEK293; format: cell-based; details: 48 h
Text: as §1, §3, §4

NCI-H929 = assay: MTT cytotoxicity, NCI-H929 multiple myeloma cells; format: cell-based; details: Homo sapiens, suspension culture, 48 h
Text: as §1, §2, §3, §4

THP-1 = assay: MTT cytotoxicity, THP-1 acute monocytic leukemia cells; format: cell-based; details: Homo sapiens, suspension culture, 48 h
Text: as §1, §2, §3, §4

[1] = test system: CMT № 1 (Extraskeletal Ewing’s Sarcoma); assay: MTT cytotoxicity, primary culture of soft tissue sarcoma CMT № 1; format: cell-based; details: Homo sapiens, 48 h
Text: It is believed that such cultures have a molecular profile that corresponds more with cells from the human body, in comparison with that of stable cultures of tumor cells (Table 3).
as §1, §2
as §3, with “Then, MTT reagent (PanEko, Moscow, Russia) was added to the wells at a concentration of 5 mg/mL in a volume of 20 μL per well. After 1.5–2 h, the medium with the reagent was removed, and the precipitate of the crystals of formazan was dissolved in 60 μL of DMSO.” left out
Based on the results of the experiments, a schedule was plotted of the dependence of the percentage of surviving cells (from control) on the concentration of the compound, and the sought concentration IC50 was calculated. […]

K562/i-S9 = assay: MTT cytotoxicity, resistant K562/i-S9 cells (ABCB1 transfected); format: cell-based, human; details: for IC50: Homo sapiens, K562i/S9, resistant version, ABCB1 transfected, MTT, 48 h; for resistance of K562/i-S9 cells relative to K562: ratio of IC50 values, Table 4
Text: (§5) At the next stage, the cytotoxic activity of compounds 1, 2, and 9 (Scheme 2) was investigated on several pairs of cell lines that differ in the expression of P-gp and the method by which they were obtained. K562/i-S9 cells are the result of the ABCB1 transfection into K562 cells, which increases P-gp expression, but should not seriously affect other signaling pathways that could lead to drug resistance. K562/i-S9_Dox cells were obtained from K562/i-S9 by selection with low concentrations of doxorubicin to increase P-gp expression. Subline HBL-100/Dox is a derivative of HBL-100 cells, obtained by long-term selection with increasing concentrations of doxorubicin, which led not only to an increase in P-gp expression, but also to a change in the signaling pathways in this subline. Cells of the K562/i-S9_Dox subline express the highest level of P-gp: 94.7% ± 2.3 (p < 0.0001 relative to K562, and p = 0.04 relative to K562/i-S9). In cells of the K562/i-S9 line, the expression of P-gp is 80% ± 8.2 (p < 0.0001 relative to K562). At 0.7% ± 0.5, P-gp is practically not expressed in K562 cells (Figure 1).
as §2, §3, §4

K562/i-S9_Dox = assay: MTT cytotoxicity, resistant K562/i-S9_Dox cells (P-gp overexpression); format: cell-based, human; details: Homo sapiens, K562; resistant version, doxorubicin selected, MTT, 48 h
Text: as §5, §2, §3, §4

P-glycoprotein = molecular target: T1, P-glycoprotein (Homo sapiens, UniProt P08183); assay: Release of rhodamine 123 (Rd123) from K562/i-S9_Dox cells, flow cytometry; format: cell-based; details: K562/i-S9_Dox cells after Rd123 release, compound 20 μM, 35 min; release without compound 17.1 ± 6.6
T1 construct: expressed in transfected cells; host or cells: K562/i-S9_Dox (K562 transfected with ABCB1/MDR1, then selected with increasing doxorubicin)
Experimental: The principle of the test is as follows: Rd123 is a fluorophore and a known P-gp substrate. During incubation, Rd123 enters the cells by simple diffusion, and then Rd123 begins to interact with P-gp, which releases it from the cell. Cells in which Rd123 is present are stained and can be detected by flow cytometry. The more efficiently P-gp works, the less stained cells in the population remain over time.
The experiment used K562/i-S9_Dox cells with P-gp overexpression. Cells (5 × 10^5 per point) were incubated with Rd123 at a concentration of 3.5 μg/mL for 20 min in serum-free RPMI1640 medium. Furthermore, the efficiency of Rd123 entry into cells was assessed. […] Incubation with substances took place for 35 min in 1 mL of serum-free medium. Then, the cells were precipitated, washed with PBS solution, and the % of stained cells in the population were assessed on a flow cytometer.

T1 sequence (P08183 whole entry): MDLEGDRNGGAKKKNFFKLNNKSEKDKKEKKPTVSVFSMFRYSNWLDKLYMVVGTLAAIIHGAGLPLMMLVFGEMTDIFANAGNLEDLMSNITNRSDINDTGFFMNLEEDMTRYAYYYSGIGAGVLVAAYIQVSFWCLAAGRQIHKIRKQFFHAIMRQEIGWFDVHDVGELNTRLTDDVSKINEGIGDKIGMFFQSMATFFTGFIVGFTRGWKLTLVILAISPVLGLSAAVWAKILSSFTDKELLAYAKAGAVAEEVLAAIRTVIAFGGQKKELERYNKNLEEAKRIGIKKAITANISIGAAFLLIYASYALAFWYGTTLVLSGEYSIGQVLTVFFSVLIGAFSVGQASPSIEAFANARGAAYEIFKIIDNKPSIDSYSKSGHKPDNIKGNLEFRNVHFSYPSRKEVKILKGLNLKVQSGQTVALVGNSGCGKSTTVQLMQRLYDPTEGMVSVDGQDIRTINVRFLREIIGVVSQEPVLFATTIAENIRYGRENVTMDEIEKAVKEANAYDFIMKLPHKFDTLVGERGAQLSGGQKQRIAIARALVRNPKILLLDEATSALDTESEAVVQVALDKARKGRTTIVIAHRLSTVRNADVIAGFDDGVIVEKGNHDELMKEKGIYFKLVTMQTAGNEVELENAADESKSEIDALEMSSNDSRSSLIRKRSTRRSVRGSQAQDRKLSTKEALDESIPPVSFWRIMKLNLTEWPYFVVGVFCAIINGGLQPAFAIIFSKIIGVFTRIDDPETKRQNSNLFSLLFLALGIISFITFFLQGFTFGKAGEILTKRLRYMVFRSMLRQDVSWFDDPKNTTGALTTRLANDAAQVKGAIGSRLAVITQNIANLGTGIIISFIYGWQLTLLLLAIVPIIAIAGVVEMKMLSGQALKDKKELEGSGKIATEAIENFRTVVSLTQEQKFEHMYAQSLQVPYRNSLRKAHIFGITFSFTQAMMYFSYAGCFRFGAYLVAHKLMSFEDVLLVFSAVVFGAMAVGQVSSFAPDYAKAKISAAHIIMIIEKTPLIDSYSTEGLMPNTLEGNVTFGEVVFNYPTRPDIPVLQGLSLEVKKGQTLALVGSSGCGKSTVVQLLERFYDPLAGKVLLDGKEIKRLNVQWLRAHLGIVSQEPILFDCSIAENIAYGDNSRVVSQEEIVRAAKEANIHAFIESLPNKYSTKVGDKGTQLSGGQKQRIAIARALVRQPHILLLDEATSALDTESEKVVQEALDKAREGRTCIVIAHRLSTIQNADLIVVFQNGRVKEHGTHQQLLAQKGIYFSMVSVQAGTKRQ

SMILES | IC50 (PC3) [µM] | IC50 (A549) [µM] | IC50 (HEK293) [µM] | IC50 (NCI-H929) [nM] | IC50 (THP-1) [nM] | IC50 [1] [nM] | IC50 (K562/i-S9) [nM] | resistance of K562/i-S9 cells relative to K562 (K562/i-S9) | IC50 (K562/i-S9_Dox) [µM] | % Luminous Cells (P-glycoprotein) | IC50 value, PC3 (PC3; adhesive tumor culture) | IC50 value, A549 (A549; adhesive tumor culture)
C=C1C2=C(C(=O)N1OC)[C@@H](N1CCCC1)[C@@](C)(O)[C@H](CCCCC)O2 [Compound 1] | 7.6 ± 0.9 | 14 ± 0.1 | 5.1 ± 0.7 | 700 ± 200 | 1500 ± 400 | 2600 ± 1100 | 2400 ± 600 | slightly greater sensitivity | 3.1 ± 0.8 | 73% and 73.4 ± 6.7% | – | –
C=C1C2=C(C(=O)N1OC)[C@@H](N(C)C)[C@@](C)(O)[C@H](CCCCC)O2 [Compound 2, (2S,3R,4R)-4-(dimethylamino)-3-hydroxy-6-methoxy-3-methyl-7-methylene-2-pentyl-3,4,6,7-tetrahydropyrano[2,3-c]pyrrol-5(2H)-one] | 5.9 ± 3 | 9.6 ± 2.1 | 4.2 ± 0.3 | 500 ± 100 | 900 ± 300 | 1600 ± 700 | 1600 ± 500 | – | 2.4 ± 0.9 | 82% and 82.4 ± 3.0% | – | –
C=C1C2=C(C(=O)N1OC)[C@@H](N(CCCC)CCCC)[C@@](C)(O)[C@H](CCCCC)O2 [Compound 5, (2S,3R,4R)-4-(dibutylamino)-3-hydroxy-6-methoxy-3-methyl-7-methylene-2-pentyl-3,4,6,7-tetrahydropyrano[2,3-c]pyrrol-5(2H)-one] | 9.4 ± 1 | 23.4 ± 2.3 | 8.2 ± 0.9 | 2900 ± 300 | 8200 ± 600 | – | – | – | – | – | – | –
C=C1C2=C(C(=O)N1OC)[C@@H](N(CC)CCO)[C@@](C)(O)[C@H](CCCCC)O2 [Compound 9, (2S,3R,4R)-4-[ethyl(2-hydroxyethyl)amino]-3-hydroxy-6-methoxy-3-methyl-7-methylene-2-pentyl-3,4,6,7-tetrahydropyrano[2,3-c]pyrrol-5(2H)-one] | 7.8 ± 0.1 | 8.9 ± 0.2 | 3.8 ± 0.4 | 600 ± 200 | 1700 ± 200 | 2900 ± 1100 | 2800 ± 600 | tendency towards increased sensitivity | 3.3 ± 0.6 | 80% and 80.2 ± 6.2% | – | –
CCCCC[C@@H]1OC2=C(C(=O)N(OC)/C2=C\n2cnnc2)C(n2cnnc2)[C@@]1(C)O (stereo partly drawn) [Compound 10] | – | – | 41 ± 2.1 | 5600 ± 700 | 42000 ± 5200 | – | – | – | – | – | not active | not active
